Values after ≈ are worked out from the molar mass of the structure shown. Active and inactive are the calls of the source. No cut-off for these calls is given here.
Legend:
[1] = test system: Staphylococcus aureus; test: Antibacterial activity against methicillin resistant Staphylococcus aureus ATCC33591 assessed as inhibition of bacterial growth incubated for 24 hrs by broth microdilution method; format: functional
[2] = test system: Ralstonia solanacearum; test: Antibacterial activity against Ralstonia solanacearum assessed as inhibition of bacterial growth incubated for 24 hrs by broth microdilution method; format: functional
[3] = test system: Enterococcus faecium; test: Antibacterial activity against vancomycin-resistant Enterococcus faecium ATCC 700221 assessed as inhibition of bacterial growth incubated for 24 hrs by broth microdilution method; format: functional
[4] = test system: Escherichia coli; test: Antibacterial activity against Escherichia coli ATCC25922 assessed as inhibition of bacterial growth incubated for 24 hrs by broth microdilution method; format: functional
[5] = Antibacterial activity against Pseudomonas syringae pv. actinidiae assessed as inhibition of bacterial growth incubated for 24 hrs by broth microdilution method; format: functional
[6] = test system: Staphylococcus aureus; test: Antibacterial activity against Staphylococcus aureus ATCC25923 assessed as inhibition of bacterial growth incubated for 24 hrs by broth microdilution method; format: functional
[7] = test system: Staphylococcus aureus; test: Antibacterial activity against methicillin resistant Staphylococcus aureus ATCC33591 infected in mouse model of abdominal infection assessed as reduction in mean bacterial load in blood at 2 mg/kg, ip treated for 24 hrs starting from 2 hrs post infection; format: functional, organism-based
[8] = test system: Staphylococcus aureus; test: Antibacterial activity against methicillin resistant Staphylococcus aureus ATCC33591 assessed as post antibiotic effect at 1 ug/ml measured after 2 hrs; format: functional; conditions: dose 1 µg/ml
[9] = test system: Staphylococcus aureus; test: Bactericidal activity against methicillin resistant Staphylococcus aureus ATCC33591 assessed as inhibition of bacterial growth incubated for 24 hrs by resazurin dye based analysis; format: functional
[10] = test system: Staphylococcus aureus; test: Antibacterial activity against methicillin resistant Staphylococcus aureus ATCC33591 assessed as post antibiotic effect at 2 ug/ml measured after 2 hrs; format: functional; conditions: dose 2 µg/ml
[11] = test system: Staphylococcus aureus; test: Bactericidal activity against Staphylococcus aureus ATCC25923 assessed as inhibition of bacterial growth incubated for 24 hrs by resazurin dye based analysis; format: functional
[12] = test system: Staphylococcus aureus; test: Ratio of MBC to MIC for Staphylococcus aureus ATCC25923; format: functional
[13] = test system: Staphylococcus aureus; test: Antibacterial activity against methicillin resistant Staphylococcus aureus ATCC33591 assessed as eradication of viable bacteria at >8 times MIC measured after 24 hrs by time kill assay; format: functional, organism-based
[14] = test system: Staphylococcus aureus; test: Antibacterial activity against methicillin resistant Staphylococcus aureus ATCC33591 assessed as inhibition of bacterial growth at 1 times MIC incubated for 24 hrs by time kill assay; format: functional, organism-based
[15] = Cytotoxicity against human HepG2 cells assessed as cell viability at 32 to 64 ug/ml measured after 24 hrs by MTT assay; format: toxicity, cell-based; conditions: at 32 to 64 µg/mL, dose 32-64 µg/ml, read-out: Activity
[16] = Cytotoxicity against human L02 cells assessed as cell viability at 32 to 64 ug/ml measured after 24 hrs by MTT assay; format: toxicity, cell-based; conditions: at 32 to 64 µg/mL, dose 32-64 µg/ml, read-out: Activity
[17] = test system: Staphylococcus aureus; test: Antibacterial activity against methicillin resistant Staphylococcus aureus ATCC33591 assessed as post antibiotic effect at 16 ug/ml measured after 2 hrs; format: functional; conditions: dose 16 µg/ml
[18] = test system: Staphylococcus aureus; test: Antibacterial activity against methicillin resistant Staphylococcus aureus ATCC33591 assessed as post antibiotic effect at 8 ug/ml measured after 2 hrs; format: functional; conditions: dose 8 µg/ml
[19] = test system: Staphylococcus aureus; test: Drug resistance, ratio of MIC for methicillin-resistant Staphylococcus aureus ATCC33591 after 18 passages to MIC for methicillin-resistant Staphylococcus aureus ATCC33591 after initial exposure; format: functional

| Compound | MIC [1] [µg/mL] | MIC [2] [µg/mL] | MIC [3] [µg/mL] | MIC [4] [µg/mL] | MIC [5] [µg/mL] | MIC [6] [µg/mL] | Activity [7] | PAE [8] [h] | MBC [9] [µg/mL] | PAE [10] [h] | MBC [11] [µg/mL] | Ratio [12] | Activity [13] | Activity [14] | viability at 24 h [15] [%] | viability at 24 h [16] [%] | PAE [17] [h] | PAE [18] [h] | Ratio [19] |
| --- | --- | --- | --- | --- | --- | --- | --- | --- | --- | --- | --- | --- | --- | --- | --- | --- | --- | --- | --- |
| O=C(Nc1ccc(C2NCCc3c2[nH]c2ccccc32)cc1)c1cccc(F)c1 (stereo not drawn) | 4 (≈ 10.4 µM) | 8 (≈ 20.8 µM) | > 128 | 16 (≈ 41.5 µM) | 32 (≈ 83 µM) | 16 (≈ 41.5 µM) |  |  |  |  |  |  |  |  |  |  |  |  |  |
| O=C(Nc1ccc(C2NCCc3c2[nH]c2ccccc32)cc1)c1cccc([N+](=O)[O-])c1 (stereo not drawn) | 16 (≈ 38.8 µM) | 16 (≈ 38.8 µM) | > 128 | 16 (≈ 38.8 µM) | 32 (≈ 77.6 µM) | 8 (≈ 19.4 µM) |  |  |  |  |  |  |  |  |  |  |  |  |  |
| COC(=O)c1ccc(C(=O)Nc2ccc(C3c4[nH]c5ccccc5c4CCN3C)cc2)cc1 (stereo not drawn) | 32 (≈ 72.8 µM) | 128 (≈ 291 µM) | > 128 | 128 (≈ 291 µM) | 32 (≈ 72.8 µM) | 64 (≈ 146 µM) |  |  |  |  |  |  |  |  |  |  |  |  |  |
| O=C(Nc1ccc(C2NCCc3c2[nH]c2ccccc32)cc1)c1ccc(Br)cc1 (stereo not drawn) | 32 (≈ 71.7 µM) | 32 (≈ 71.7 µM) | > 128 | 8 (≈ 17.9 µM) | 16 (≈ 35.8 µM) | 32 (≈ 71.7 µM) |  |  |  |  |  |  |  |  |  |  |  |  |  |
| CN1CCc2c([nH]c3ccccc23)C1c1ccc(NC(=O)c2ccc(Cl)cc2)cc1 (stereo not drawn) | 16 (≈ 38.5 µM) | 32 (≈ 76.9 µM) | > 128 | 32 (≈ 76.9 µM) | 64 (≈ 154 µM) | 8 (≈ 19.2 µM) |  |  |  |  |  |  |  |  |  |  |  |  |  |
| CN1CCc2c([nH]c3ccccc23)C1c1ccc(NC(=O)c2cccc(Cl)c2)cc1 (stereo not drawn) | 8 (≈ 19.2 µM) | 16 (≈ 38.5 µM) | > 128 | 16 (≈ 38.5 µM) | 64 (≈ 154 µM) | 16 (≈ 38.5 µM) |  |  |  |  |  |  |  |  |  |  |  |  |  |
| CN1CCc2c([nH]c3ccccc23)C1c1ccc(NC(=O)c2ccc(C(F)(F)F)cc2)cc1 (stereo not drawn) | 8 (≈ 17.8 µM) | 16 (≈ 35.6 µM) | 128 (≈ 285 µM) | 16 (≈ 35.6 µM) | 32 (≈ 71.2 µM) | 8 (≈ 17.8 µM) |  |  |  |  |  |  |  |  |  |  |  |  |  |
| O=C(Nc1ccc(C2NCCc3c2[nH]c2ccccc32)cc1)c1cccc(Cl)c1 (stereo not drawn) | 8 (≈ 19.9 µM) | 8 (≈ 19.9 µM) | > 128 | 8 (≈ 19.9 µM) | 64 (≈ 159 µM) | 16 (≈ 39.8 µM) |  |  |  |  |  |  |  |  |  |  |  |  |  |
| O=C(Nc1ccc(C2NCCc3c2[nH]c2ccccc32)cc1)c1cccc(C(F)(F)F)c1 (stereo not drawn) | 4 (≈ 9.19 µM) | 16 (≈ 36.7 µM) | 128 (≈ 294 µM) | 8 (≈ 18.4 µM) | 32 (≈ 73.5 µM) | 8 (≈ 18.4 µM) |  |  |  |  |  |  |  |  |  |  |  |  |  |
| O=C(O)c1cn(C2CC2)c2cc(N3CCNCC3)c(F)cc2c1=O [CIPROFLOXACIN] | 0.5 (≈ 1.51 µM) | 0.25 (≈ 0.754 µM) | > 128 |  | 0.5 (≈ 1.51 µM) | 0.5 (≈ 1.51 µM) | Active | 1.18 | 2 (≈ 6.04 µM) | 1.79 |  |  |  |  |  |  |  |  |  |
| O=C(Nc1ccc(C2NCCc3c2[nH]c2ccccc32)cc1)c1ccc([N+](=O)[O-])cc1 (stereo not drawn) | 4 (≈ 9.7 µM) | 8 (≈ 19.4 µM) | > 128 | 8 (≈ 19.4 µM) | 32 (≈ 77.6 µM) | 8 (≈ 19.4 µM) |  |  |  |  |  |  |  |  |  |  |  |  |  |
| Cc1ccccc1C(=O)Nc1ccc(C2NCCc3c2[nH]c2ccccc32)cc1 (stereo not drawn) | 32 (≈ 83.9 µM) | 128 (≈ 336 µM) | > 128 | 64 (≈ 168 µM) | 128 (≈ 336 µM) | 32 (≈ 83.9 µM) |  |  |  |  |  |  |  |  |  |  |  |  |  |
| O=C(Nc1ccc(C2NCCc3c2[nH]c2ccccc32)cc1)c1ccc(Cl)cc1 (stereo not drawn) | 8 (≈ 19.9 µM) | 8 (≈ 19.9 µM) | > 128 | 16 (≈ 39.8 µM) | 128 (≈ 318 µM) | 4 (≈ 9.95 µM) |  |  | 16 (≈ 39.8 µM) |  | 32 (≈ 79.6 µM) | 1 |  |  |  |  |  |  |  |
| CN1CCc2c([nH]c3ccccc23)C1c1ccc(NC(=O)c2cccc(C(F)(F)F)c2)cc1 (stereo not drawn) | 32 (≈ 71.2 µM) | 16 (≈ 35.6 µM) | > 128 | 32 (≈ 71.2 µM) | 32 (≈ 71.2 µM) | 32 (≈ 71.2 µM) |  |  |  |  |  |  |  |  |  |  |  |  |  |
| Cc1cccc(C(=O)Nc2ccc(C3NCCc4c3[nH]c3ccccc43)cc2)c1 (stereo not drawn) | 64 (≈ 168 µM) | 32 (≈ 83.9 µM) | > 128 | 32 (≈ 83.9 µM) | 32 (≈ 83.9 µM) | 32 (≈ 83.9 µM) |  |  |  |  |  |  |  |  |  |  |  |  |  |
| O=C(Nc1ccc(C2NCCc3c2[nH]c2ccccc32)cc1)c1ccc(F)cc1 (stereo not drawn) | 4 (≈ 10.4 µM) | 4 (≈ 10.4 µM) | > 128 | 16 (≈ 41.5 µM) | 64 (≈ 166 µM) | 4 (≈ 10.4 µM) |  |  | 8 (≈ 20.8 µM) |  | 8 (≈ 20.8 µM) | 1 | Active | Active | > 95 | > 95 | 1.28 | 0.95 | <4 |
| CN1CCc2c([nH]c3ccccc23)C1c1ccc(NC(=O)c2ccc(Br)cc2)cc1 (stereo not drawn) | 32 (≈ 69.5 µM) | 32 (≈ 69.5 µM) | > 128 | 32 (≈ 69.5 µM) | 64 (≈ 139 µM) | 32 (≈ 69.5 µM) |  |  |  |  |  |  |  |  |  |  |  |  |  |
